In data set [1] the target is T1, PGAM-Chk1 binding (Homo sapiens, UniProt O14757+P18669).
T1 construct: expressed in transfected cells
The experiment in a line: Nano-Bit PGAM-Chk1 binding in cancer cell line H1299. It counts as cell-based. As to conditions: H1299 cells; 40 μM for 12, 24, and 48 hours. From the text: PGAM and Chk1 kinase genes tagged with Nano-Bit tags were introduced into the cancer cell line H1299 to prepare a cell line capable of stable expression. […] The treated cells were used to measure intracellular luciferase luminescence signals by Nano-Bit for each.
T1 sequence (P18669 whole entry, one chain of several): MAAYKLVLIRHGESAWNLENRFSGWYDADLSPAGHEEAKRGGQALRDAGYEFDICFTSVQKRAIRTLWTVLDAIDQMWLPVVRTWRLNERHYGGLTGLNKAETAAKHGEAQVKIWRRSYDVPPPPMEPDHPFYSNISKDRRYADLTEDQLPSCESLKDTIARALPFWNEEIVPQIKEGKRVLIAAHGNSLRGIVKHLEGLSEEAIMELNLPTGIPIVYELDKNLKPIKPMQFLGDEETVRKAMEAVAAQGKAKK

For another data set, the system named is IMR90 cells. The experiment in a line: Senolysis / cell death of young and Ras-induced senescent IMR90 cells. It is filed as cell-based, human. From the text: Ras gene with oncogenic mutation was introduced into young cells (within 1 month of continuous culture) of IMR90 cells by retroviral infection to acquire senescent cells. […] The control received only DMSO treatment. Representative images of cells observed under a microscope are shown (FIG. 11).
An oncogenic mutated Ras gene was introduced into young cells (within 1 month of continuous culture) of IMR90 cells by retroviral infection to acquire stress-induced senescent cells. The young cells and the senescent cells were both treated with different concentrations of the RSK kinase inhibitor BI-D1870 for 96 hours to evaluate cell death.
An oncogenic mutated Ras gene was introduced into young cells (within 1 month of continuous culture) of IMR90 cells by retroviral infection to acquire stress-induced senescent cells. The young cells and the senescent cells of IMR90 were both transfected with an RSK1 siRNA (two types of siRNA #1 (SEQ ID NO: 7) or #2 (SEQ ID NO: 8) having different target sequences) or a control to knock down RSK1. Representative images of cells observed under a microscope are shown (upper diagram in FIG. 20).
An oncogenic Ras was introduced into young cells (within 1 month of continuous culture) of IMR90 cells to induce senescent cells (OIS). The young cells and the senescent cells of IMR90 were transfected with two HIF-2α-specific siRNAs (SEQ ID NO: 9 and SEQ ID NO: 10) having different target sequences to knock down HIF-2α.
An oncogenic Ras was introduced into young cells (within 1 month of continuous culture) of IMR90 cells to induce senescent cells (OIS). The young cells and the senescent cells of IMR90 were transfected with a BIM-specific siRNA to knock down BIM.
An oncogenic Ras was introduced into young cells (within 1 month of continuous culture) of IMR90 cells to induce senescent cells (OIS). In the young cells and the senescent cells of IMR90, HIF-2α alone or both HIF-2α and BIM were knocked down by using their respective specific siRNAs (SEQ ID NO: 9, SEQ ID NO: 10), and cell death was confirmed (FIG. 28).
The latter information consists of 12,655 ChIP datasets from 903 antigens (transcription factors and epigenetic regulators).

The test system of another data set is p53. The experiment in a line: p53 activation (Western blot of p53 and p21) in young IMR90 cells. It is filed as cell-based, human. The conditions noted are these: 20 μM for 48 hours. From the text:
After the treatment, proteins were extracted from the cells to carry out Western blotted.

Another data set deals with glycolytic metabolism. Nature of the data set: Glycolytic metabolism (glucose consumption, lactate production) in etoposide-induced senescent IMR90 cells. It is filed as cell-based, human. As to conditions: 20 μM or 40 μM for 48 hours. As for the experimental part:
Next, young cells (within 1 month of continuous culture) of the IMR90 cells were treated with 100 μM etoposide for 48 hours to acquire senescent cells. […] After the nutlin treatment, the medium was collected, and glucose consumption was evaluated and lactate production was measured. The lactate level is calculated as a value (μmol/mg/h) obtained by measuring the amount of lactate secreted into the medium per hour (μmol/h) and correcting the same by the total cell protein (mg) and is expressed as a value relative to the actual value on day 0. The glucose consumption is calculated as a value (μmol/mg/h) obtained by measuring the amount of glucose decreased from the medium per hour (μmol/h) and correcting the same by the total cell protein (mg) and is expressed as a value relative to the actual value on day 0. Glucose and lactate were measured by using a Glucose assay kit (BioVision) (upper diagram in FIG. 8) and a Lactate assay kit (BioVision) (lower diagram in FIG. 8), respectively.

Data set [2] has as its target T2, PGAM-Chk1 binding (Homo sapiens, UniProt O14757+P18669).
T2 construct: endogenous in cells; host or cells: IMR90 human primary fibroblasts made senescent by retroviral oncogenic Ras
T2 sequence (P18669 2-254 limits assumed): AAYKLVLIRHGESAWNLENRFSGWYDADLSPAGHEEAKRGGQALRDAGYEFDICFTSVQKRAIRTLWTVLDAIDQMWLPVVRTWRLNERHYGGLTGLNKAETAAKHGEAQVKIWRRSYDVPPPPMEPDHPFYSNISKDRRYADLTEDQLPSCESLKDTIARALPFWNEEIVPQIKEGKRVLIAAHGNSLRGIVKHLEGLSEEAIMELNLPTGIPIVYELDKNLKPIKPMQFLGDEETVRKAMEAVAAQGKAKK
T2 sequence (O14757 1-476): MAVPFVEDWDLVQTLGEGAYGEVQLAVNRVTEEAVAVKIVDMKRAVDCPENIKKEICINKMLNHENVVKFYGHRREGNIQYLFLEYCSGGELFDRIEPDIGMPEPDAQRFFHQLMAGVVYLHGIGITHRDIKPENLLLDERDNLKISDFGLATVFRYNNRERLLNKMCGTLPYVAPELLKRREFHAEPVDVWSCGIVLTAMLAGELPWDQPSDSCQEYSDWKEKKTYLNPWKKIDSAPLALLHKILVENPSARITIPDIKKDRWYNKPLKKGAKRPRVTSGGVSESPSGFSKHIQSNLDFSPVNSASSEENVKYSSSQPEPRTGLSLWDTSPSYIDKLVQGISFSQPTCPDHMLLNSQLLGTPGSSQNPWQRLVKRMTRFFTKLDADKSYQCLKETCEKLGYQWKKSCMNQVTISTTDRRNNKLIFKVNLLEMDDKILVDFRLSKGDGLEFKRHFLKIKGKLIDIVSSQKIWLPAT
The experiment in a line: PGAM-Chk1 binding by anti-Chk1 immunoprecipitation and anti-PGAM Western blotting in Ras-induced senescent IMR90 cells. It is filed as cell-based. The method, then:
Human primary fibroblasts, IMR90 cells, were obtained from the JCRB Cell Bank. An oncogenic Ras mutation was retrovirally introduced into young cells (within 1 month of continuous culture) of the IMR90 cells to induce cellular senescence. […] After that, these cells were treated with MG132 for 6 hours, and cell lysates were prepared. The obtained cell lysates were immunoprecipitated with an anti-Chk1 antibody. The resulting immunoprecipitate was used for Western blotting with an anti-PGAM antibody to evaluate PGAM-Chk1 binding.
Next, in the same manner as above, IMR90 cells were used to prepare stress-induced senescent cells by introducing an oncogenic mutated Ras gene. The senescent cells were transfected with an RSK1 siRNA (SEQ ID NO: 7) or a control to knock down RSK1. The resulting cells were collected, and proteins were extracted. The resulting protein extract was immunoprecipitated with an anti-Chk1 antibody. The resulting immunoprecipitate was used for Western blotting with an anti-PGAM antibody to evaluate PGAM-Chk1 binding.

The subject of a further data set is BIM gene. The experiment in a line: BIM gene expression in Ras-induced senescent IMR90 cells. It is filed as cell-based, human. The conditions noted are these: senescent (OIS) IMR90 cells; HIF-2α knockdown by siRNA. As for the experimental part: An oncogenic Ras was introduced into young cells (within 1 month of continuous culture) of IMR90 cells to induce senescent cells (OIS).
An oncogenic Ras was introduced into young cells (within 1 month of continuous culture) of IMR90 cells to induce senescent cells (OIS). The senescent cells were transfected with an HIF-2α-specific siRNA (SEQ ID NO: 9) to knock down HIF-2α. After that, the expression of the BIM gene, which is an apoptosis-inducing gene, was analyzed (FIG. 26).

Another data set relates to mice models. The conditions noted are these: Chang et al., 2016, Childs et al.; cited from earlier work.
The test system of data set [3] is Chk1 kinase. The experiment in a line: S280 phosphorylation of Chk1 kinase after RSK1 knockdown in senescent IMR90 cells. It is filed as cell-based, human. The conditions noted are these: Ras-induced senescent IMR90 cells; RSK1 knockdown by siRNA.
The subject of data set [4] is Chk1 kinase. Nature of the data set: S280 phosphorylation of Chk1 kinase by Western blot in H1299 cells. It counts as cell-based. The conditions noted are these: 10 μM for 48 hours. The method, then: When each inhibitor (U126 and BI-D1870) was administered to cancer cells, PGAM-Chk1 kinase binding was inhibited, and glycolytic metabolism decreased (Mikawa et al., 2020). RSK kinase was already known to directly control the phosphorylation of the S280 residue of Chk1 kinase (Li et al., 2012, Mol Biol Cell 23, 1582-1592). […] Specifically, cancer cell line H1299 cells were treated with the MEK kinase inhibitor (U126) at a concentration of 10 μM for 48 hours. The treated cells were collected, and proteins were extracted and then Western blotted. It was confirmed that the S280 phosphorylation of Chk1 kinase was suppressed although the protein level of Chk1 kinase was not changed. In addition, the present inventors prepared S280A mutants of Chk1 kinase. […] Specifically, PGAM and Chk1 kinase genes tagged with Nano-Bit tags were introduced into IMR90 cells to prepare a cell line capable of stable expression. At this time, three types of Chk1, i.e., wild-type Chk1 and S280A mutant Chk1 or S280D mutant Chk1, were each introduced into the cells. An oncogenic mutated Ras gene was introduced into these cells by retroviral infection to acquire stress senescent cells. The obtained senescent cells were used to measure intracellular luciferase luminescence signals by Nano-Bit for each.

The subject of another data set is PGAM-Chk1 kinase binding. The conditions noted are these: cancer cells; Mikawa et al., 2020; cited from earlier work.

`COc1ccc(C2=N[C@@H](c3ccc(Cl)cc3)[C@@H](c3ccc(Cl)cc3)N2C(=O)N2CCNC(=O)C2)c(OC(C)C)c1` [nutlin 3a]: the “luciferase luminescence signal by Nano-Bit (PGAM-Chk1 binding)” value on PGAM-Chk1 binding [1] was “treatment time-dependent decrease”. For the same compound, the “cell death observed under a microscope” value in the data set with IMR90 cells (young and Ras-induced senescent IMR90 cells, 40 μM for 72 hours) was “cell death and cell number decrease were observed in both the young cells and the senescent cells”. Besides, in the data set on p53, the “protein level of p21” value is on record as “markedly increased” and the “protein level of p53” value was “markedly increased”. Further, in the data set with glycolytic metabolism, the glucose consumption entry was “suppressed in a dose-dependent manner” and the lactate production result is reported as “suppressed in a dose-dependent manner”. Moreover, the “PGAM-Chk1 binding (interaction)” value at PGAM-Chk1 binding [2] (20 μM or 40 μM for 48 hours, then MG132 6 hours) is on record as “inhibit PGAM-Chk1 interaction to the same extent”.

“HIF-2α-specific siRNA (SEQ ID NO: 9): HIF-2α-specific siRNA, SEQ ID NO: 9 (CACCUACUGUGAUGACAGA; listed as RNA, chemistry not given here)”: in the data set on IMR90 cells (young and Ras-induced senescent (OIS) IMR90 cells, siRNA transfection), the “cell death after HIF-2α knockdown” value is given as “selective cell death (senolysis)”. For the same compound, the “expression of the apoptosis-inducing gene BIM” value with BIM gene is listed as “increased”.

Take `CC1(C)CCC(c2ccc(Cl)cc2)=C(CN2CCN(c3ccc(C(=O)NS(=O)(=O)c4ccc(N[C@H](CCN5CCOCC5)CSc5ccccc5)c(S(=O)(=O)C(F)(F)F)c4)cc3)CC2)C1` [ABT263]: the “aging-relevant dysfunctions and artherosclerosis” value in the data set on mice models is reported as “alleviated”.

With “RSK1 siRNA #1: RSK1 siRNA including the sequence of SEQ ID NO: 7 (CACUGAUUCUGAAGGCGAA; listed as RNA, chemistry not given here)”, the “senolysis phenomenon with knockdown of RSK1” value in the data set on IMR90 cells (young and Ras-induced senescent IMR90 cells, siRNA transfection) is “young cells are normal, but senescent cells selectively die”. In the data set with Chk1 kinase [3], the “S280 phosphorylation of Chk1 kinase” value is recorded as “decreased”. In addition, the PGAM-Chk1 binding result in the data set with PGAM-Chk1 binding [2] (RSK1 knockdown by siRNA) is “inhibition of PGAM-Chk1”.

For `N#CC(=C(/N)Sc1ccccc1N)/C(C#N)=C(/N)Sc1ccccc1N` [U126], in the data set with Chk1 kinase [4], the “S280 phosphorylation of Chk1 kinase” value is recorded as “suppressed” and the “protein level of Chk1 kinase” value is “not changed”. For the same compound, in the data set on PGAM-Chk1 kinase binding, the PGAM-Chk1 kinase binding entry is recorded as “inhibited” and the glycolytic metabolism entry was “decreased”.

(Values after patent US20250003952A1, “SENOLYTIC DRUG SCREENING METHOD AND SENOLYTIC DRUG” (KYOTO UNIVERSITY, priority 2021, published 2025).)
